Data: ChEMBL document CHEMBL1201862, “PubChem BioAssay data set” (2004)
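Exposure lasted 48 hours, with cells grown in 96-well plates and compounds tested at five concentrations. GI50 marks 50% less growth.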 Activity calls are given as the source filed them. Rule as the data show it: active = GI50 up to about 1.1 µM and inactive = higher.

Legend:
Test in all cases: DTP human tumour cell line panel, 48 h
[1] = system: 786-0
[2] = system: A498
[3] = system: A549
[4] = system: ACHN
[5] = system: BT-549
[6] = system: CAKI-1
[7] = system: CCRF-CEM
[8] = system: COLO 205
[9] = system: DU-145
[10] = system: EKVX
[11] = system: HCC 2998
[12] = system: HCT-116
[13] = system: HCT-15
[14] = system: HL-60
[15] = system: HOP-62
[16] = system: HOP-92
[17] = system: HT-29
[18] = system: Hs-578T
[19] = system: IGROV-1
[20] = system: KM12
[21] = system: LOX IMVI
[22] = system: M14
[23] = system: MCF7
[24] = system: MDA-MB-231
[25] = system: MDA-MB-435
[26] = system: MDA-N
[27] = system: MOLT-4
[28] = system: Malme-3M
[29] = system: NCI-H226
[30] = system: NCI-H23
[31] = system: NCI-H460
[32] = system: NCI-H522
[33] = system: NCI/ADR-RES
[34] = system: OVCAR-3
[35] = system: OVCAR-4
[36] = system: OVCAR-5
[37] = system: OVCAR-8
[38] = system: PC-3
[39] = system: RPMI-8226
[40] = system: SF-268
[41] = system: SF-295
[42] = system: SF-539
[43] = system: SK-MEL-28
[44] = system: SK-MEL-2
[45] = system: SK-MEL-5
[46] = system: SK-OV-3
[47] = system: SN12C
[48] = system: SNB-19
[49] = system: SR
[50] = system: T47D
[51] = system: TK-10
[52] = system: U-251
[53] = system: UACC-257
[54] = system: UACC-62
[55] = system: UO-31
[56] = system: K562
[57] = system: RXF 393
[58] = system: SNB-75
[59] = system: SW-620

For `CC(=O)c1ccc(Nc2nc3ccccc3c3occc23)cc1`, the GI50 [1] was 5.6 µM (inactive), the GI50 [2] was 2.99 µM (inactive) and the GI50 [3] was 11.1 µM (inactive). For the same compound, the GI50 [4] was 11.1 µM (inactive), the GI50 [5] was 19.8 µM (inactive) and the GI50 [6] was 3.26 µM (inactive). For the same compound, the GI50 [7] was 10.5 µM (inactive), the GI50 [8] was 8.99 µM (inactive) and the GI50 [9] was 16.6 µM (inactive). The GI50 [10] was 15.9 µM (inactive), the GI50 [11] was 6.89 µM (inactive) and the GI50 [12] was 11.4 µM (inactive). The GI50 [13] was 5.08 µM, the GI50 [14] was 0.036 µM (active) and the GI50 [15] was 12.4 µM (inactive). For the same compound, the GI50 [16] was 12.8 µM (inactive), the GI50 [17] was 4.16 µM (inactive) and the GI50 [18] was 15.3 µM (inactive). For the same compound, the GI50 [19] was 9.06 µM (inactive), the GI50 [20] was 7.14 µM (inactive) and the GI50 [21] was 9.57 µM (inactive). For the same compound, the GI50 [22] was 14.1 µM (inactive), the GI50 [23] was 8.22 µM (inactive) and the GI50 [24] was 13.1 µM (inactive). For the same compound, the GI50 [25] was 3.08 µM (inactive), the GI50 [26] was 6.98 µM (inactive) and the GI50 [27] was 1.85 µM (inactive). For the same compound, the GI50 [28] was 23.3 µM (inactive), the GI50 [29] was 17 µM (inactive) and the GI50 [30] was 12.2 µM (inactive). The GI50 [31] was 4.71 µM (inactive), the GI50 [32] was 2.88 µM (inactive) and the GI50 [33] was 11.9 µM (inactive). For the same compound, the GI50 [34] was 14.9 µM (inactive), the GI50 [35] was 1.79 µM (inactive) and the GI50 [36] was 36 µM (inactive). The GI50 [37] was 32.5 µM (inactive), the GI50 [38] was 22.4 µM (inactive) and the GI50 [39] was 5.48 µM (inactive). For the same compound, the GI50 [40] was 14.1 µM (inactive), the GI50 [41] was 6.31 µM (inactive) and the GI50 [42] was 17.1 µM (inactive). For the same compound, the GI50 [43] was 2.34 µM (inactive), the GI50 [44] was 14.6 µM (inactive) and the GI50 [45] was 12.1 µM (inactive). For the same compound, the GI50 [46] was 18.4 µM (inactive), the GI50 [47] was 31.9 µM (inactive) and the GI50 [48] was 34.8 µM (inactive). For the same compound, the GI50 [49] was 2.92 µM (inactive), the GI50 [50] was 5.94 µM (inactive) and the GI50 [51] was 7.1 µM (inactive). The GI50 [52] was 18.8 µM (inactive), the GI50 [53] was 13.2 µM (inactive) and the GI50 [54] was 10.7 µM (inactive). The GI50 [55] was 20.4 µM (inactive).

With `Cc1nc(N)nc(S)c1CCCNc1ccccc1` the GI50 [1] was > 100 µM (inactive), the GI50 [2] was 26.1 µM (inactive) and the GI50 [3] was 52.2 µM (inactive). The GI50 [4] was 90.2 µM (inactive), the GI50 [5] was 70 µM (inactive) and the GI50 [6] was > 100 µM (inactive). For the same compound, the GI50 [7] was 28 µM (inactive), the GI50 [8] was 23.5 µM (inactive) and the GI50 [9] was 76.2 µM (inactive). For the same compound, the GI50 [10] was 60 µM (inactive), the GI50 [12] was 79.6 µM (inactive) and the GI50 [13] was greater than 100 µM. For the same compound, the GI50 [14] was 50 µM (inactive), the GI50 [15] was > 100 µM (inactive) and the GI50 [16] was > 100 µM (inactive). The GI50 [17] was 68.7 µM (inactive), the GI50 [18] was > 100 µM (inactive) and the GI50 [19] was > 100 µM (inactive). For the same compound, the GI50 [56] was 2.36 µM (inactive), the GI50 [20] was 76.7 µM (inactive) and the GI50 [21] was 54.5 µM (inactive). The GI50 [22] was 52.4 µM (inactive), the GI50 [23] was 38 µM (inactive) and the GI50 [24] was > 100 µM (inactive). For the same compound, the GI50 [25] was 74 µM (inactive), the GI50 [26] was 52 µM (inactive) and the GI50 [27] was 3.21 µM (inactive). The GI50 [28] was 35.6 µM (inactive), the GI50 [29] was > 100 µM (inactive) and the GI50 [30] was 88.5 µM (inactive). For the same compound, the GI50 [31] was 35 µM (inactive), the GI50 [32] was 34.4 µM (inactive) and the GI50 [33] was > 100 µM (inactive). For the same compound, the GI50 [34] was > 100 µM (inactive), the GI50 [35] was > 100 µM (inactive) and the GI50 [36] was > 100 µM (inactive). For the same compound, the GI50 [37] was 20.5 µM (inactive), the GI50 [38] was 61.2 µM (inactive) and the GI50 [39] was 27.2 µM (inactive). The GI50 [57] was > 100 µM (inactive), the GI50 [40] was 62.5 µM (inactive) and the GI50 [41] was 56.4 µM (inactive). The GI50 [42] was 95.7 µM (inactive), the GI50 [43] was > 100 µM (inactive) and the GI50 [44] was 60.1 µM (inactive). For the same compound, the GI50 [45] was 27.5 µM (inactive), the GI50 [46] was > 100 µM (inactive) and the GI50 [47] was 69.7 µM (inactive). For the same compound, the GI50 [48] was 89.7 µM (inactive), the GI50 [58] was > 100 µM (inactive) and the GI50 [49] was 3.6 µM (inactive). For the same compound, the GI50 [59] was > 100 µM (inactive), the GI50 [50] was 20.4 µM (inactive) and the GI50 [51] was 63.8 µM (inactive). For the same compound, the GI50 [52] was 68.9 µM (inactive), the GI50 [53] was 26.9 µM (inactive) and the GI50 [54] was 78.2 µM (inactive). For the same compound, the GI50 [55] was 59.3 µM (inactive).
